Consider one molecule from ChEMBL document CHEMBL4311992, “Discovery of 3-(((9H-purin-6-yl)amino)methyl)-4,6-dimethylpyridin-2(1H)-one derivatives as novel tubulin polymerization inhibitors for treatment of cancer” (Eur J Med Chem, 2019).

Molecules are shown by their SMILES.

What is called IC50 is the concentration that gives 50% inhibition.

In assay [1] the test system is PI3-kinase p110-alpha/p85-alpha (Homo sapiens), P27986+P42336 [H1047R]. As to the kind of experiment: Inhibition of recombinant full-length human PI3K p110alpha/p85alpha H1047R mutant assessed as residual activity at 10 uM using phosphatidylinositol-4, 5-bisphosphate as substrate measured after 40 mins by fluorescence assay. The format is protein-complex assay.
Assay [2] concerns the target BDNF/NT-3 growth factors receptor (Homo sapiens) (UniProt Q16620). As to the kind of experiment: Inhibition of human TrkB (455 to end residues) using poly(Glu, Tyr) 4:1 as substrate measured after 40 mins in presence of [gamma33P]ATP by scintillation counting method. Set-up: scale not given: the % may be the effect or the level left.
Assay [3] has as its system Epidermal growth factor receptor (Homo sapiens), P00533 [L858R]. In words: Inhibition of recombinant human EGFR L858R mutant (696 to end residues) assessed as residual activity at 10 uM using poly(Glu, Tyr) 4:1 as substrate measured after 40 mins in presence of [gamma33P]ATP by scintillation counting method.
The target of assay [4] is Ephrin type-A receptor 7 (Homo sapiens) (UniProt Q15375). In words: Inhibition of recombinant human EphA7 (613 to 909 residues) assessed as residual activity at 10 uM using KTFCGTPEYLAPEVRREPRILSEEEQEMFRDFDYIADWC as substrate measured after 40 mins in presence of [gamma33P]ATP by scintillation counting method.
Assay [5] has as its target Bone morphogenetic protein receptor type-1B (Homo sapiens) (UniProt O00238). As to the kind of experiment: Inhibition of recombinant human ALK6 (148 to end residues) assessed as residual activity at 10 uM using casein as substrate measured after 40 mins in presence of [gamma33P]ATP by scintillation counting method.
For assay [6], the target named is Casein kinase II subunit alpha (Homo sapiens) (UniProt P68400). As to the kind of experiment: Inhibition of recombinant full length human CK2alpha2 assessed as residual activity at 10 uM using RRRDDDSDDD as substrate measured after 40 mins in presence of [gamma33P]ATP by scintillation counting method.
Assay [7] deals with Calcium/calmodulin-dependent protein kinase type II subunit gamma (Homo sapiens) (UniProt Q13555). As to the kind of experiment: Inhibition of recombinant full-length human CaMK2gamma (1 to 330 residues) assessed as residual activity at 10 uM using calmodulin as substrate measured after 40 mins in presence of [gamma33P]ATP by scintillation counting method.
Assay [8] deals with Mitogen-activated protein kinase 14 (Homo sapiens) (UniProt Q16539). In words: Inhibition of recombinant full-length human SAPK2a assessed as residual activity at 10 uM using myelin basic protein as substrate measured after 40 mins in presence of [gamma33P]ATP by scintillation counting method.
For assay [9], the system named is A549. As to the kind of experiment: Antiproliferative activity against human A549 cells assessed as reduction in cell viability after 72 hrs by MTT assay. The note with it: A549, 72 h. The format is functional, cell-based. In general terms: Tetrazolium dyes change colour on reduction, which living cells bring about.
Assay [10] deals with Mitogen-activated protein kinase kinase kinase 11 (Homo sapiens) (UniProt Q16584). As to the kind of experiment: Inhibition of human MLK3 assessed as residual activity at 10 uM by radiometric method.
For assay [11], the target named is Insulin receptor-related protein (Homo sapiens) (UniProt P14616). As to the kind of experiment: Inhibition of recombinant human IRR (943 to 1266 residues) assessed as residual activity at 10 uM using myelin basic protein as substrate measured after 40 mins in presence of [gamma33P]ATP by scintillation counting method.
The target in assay [12] is Ribosomal protein S6 kinase alpha-3 (Homo sapiens) (UniProt P51812). As to the kind of experiment: Inhibition of human Rsk2 (2 to end residues) using KKKNRTLSVA as substrate measured after 40 mins in presence of [gamma33P]ATP by scintillation counting method. Also noted: scale not given: the % may be the effect or the level left.
The target in assay [13] is Serine/threonine-protein kinase WNK4 (Homo sapiens) (UniProt Q96J92). In words: Inhibition of human WNK4 using myelin basic protein as substrate measured after 120 mins in presence of [gamma33P]ATP by scintillation counting method. Set-up: scale not given: the % may be the effect or the level left.
For assay [14], the target named is Protein-tyrosine kinase 2-beta (Homo sapiens) (UniProt Q14289). As to the kind of experiment: Inhibition of recombinant full-length human Pyk2 assessed as residual activity at 10 uM using poly(Glu, Tyr) 4:1 as substrate measured after 40 mins in presence of [gamma33P]ATP by scintillation counting method.
The target in assay [15] is Serine/threonine-protein kinase STK11 (Homo sapiens) (UniProt Q15831). In words: Inhibition of recombinant full-length human LKB1 assessed as residual activity at 10 uM using LSNLYHQGKFLQTFCGSPLYRRR as substrate measured after 40 mins in presence of [gamma33P]ATP by scintillation counting method.
In assay [16] the target is Serine/threonine-protein kinase haspin (Homo sapiens) (UniProt Q8TF76). As to the kind of experiment: Inhibition of recombinant human haspin (471 to end residues) assessed as residual activity at 10 uM using RARTLSFAEPG as substrate measured after 40 mins in presence of [gamma33P]ATP by scintillation counting method.
For assay [17], the system named is SW-620. As to the kind of experiment: Induction of apoptosis in human SW620 cells assessed as viable cells at 100 nM measured after 48 hrs by Annexin V-FITC/propidium iodide staining-based flow cytometry (reference value: 94.7%). The format is functional. The note with it: SW-620, 48 h, read-out: Activity. A general note: Flow cytometry measures light scatter and fluorescence of single cells or particles in a stream.

Assay [18] addresses Serine/threonine-protein kinase SIK1 (Homo sapiens) (UniProt P57059). As to the kind of experiment: Inhibition of human SIK (1 to 281 residues) using AMARAASAAALARRR as substrate measured after 40 mins in presence of [gamma33P]ATP by scintillation counting method. Also noted: scale not given: the % may be the effect or the level left.
Assay [19] concerns the target Serine/threonine-protein kinase MAK (Homo sapiens) (UniProt P20794). As to the kind of experiment: Inhibition of recombinant full-length human MAK assessed as residual activity at 10 uM using RRRFRPASPLRGPPK as substrate measured after 120 mins in presence of [gamma33P]ATP by scintillation counting method.
For assay [20], the target named is Cyclin-dependent kinase 5/CDK5 activator 1 (Homo sapiens) (UniProt Q00535+Q15078). In words: Inhibition of recombinant full-length human CDK5/p35 assessed as residual activity at 10 uM using histone H1 as substrate measured after 40 mins in presence of [gamma33P]ATP by scintillation counting method. The format is protein-complex assay.
In assay [21] the test system is SW-620. As to the kind of experiment: Induction of apoptosis in human SW620 cells assessed as viable cells at 25 nM measured after 48 hrs by Annexin V-FITC/propidium iodide staining-based flow cytometry (reference value: 94.7%). The format is functional. The note with it: SW-620, 48 h, read-out: Activity.
In assay [22] the target is cAMP-dependent protein kinase catalytic subunit PRKX (Homo sapiens) (UniProt P51817). In words: Inhibition of recombinant full-length human PrKX assessed as residual activity at 10 uM using RRRLSFAEPG as substrate measured after 40 mins in presence of [gamma33P]ATP by scintillation counting method.
Assay [23] concerns HCT-116. In words: Induction of apoptosis in human HCT116 cells measured after 48 hrs by Annexin V-FITC/propidium iodide staining-based flow cytometric analysis. The format is functional, cell-based.
Assay [24] concerns the target Serine/threonine-protein kinase BRSK1 (Homo sapiens) (UniProt Q8TDC3). As to the kind of experiment: Inhibition of recombinant human BrSK1 (2 to end residues) assessed as residual activity at 10 uM using KKKVSRSGLYRSPSMPENLNRPR as substrate measured after 120 mins in presence of [gamma33P]ATP by scintillation counting method.

Chain of Ephrin type-A receptor 7 (Homo sapiens) (Q15375 28-998 limits assumed): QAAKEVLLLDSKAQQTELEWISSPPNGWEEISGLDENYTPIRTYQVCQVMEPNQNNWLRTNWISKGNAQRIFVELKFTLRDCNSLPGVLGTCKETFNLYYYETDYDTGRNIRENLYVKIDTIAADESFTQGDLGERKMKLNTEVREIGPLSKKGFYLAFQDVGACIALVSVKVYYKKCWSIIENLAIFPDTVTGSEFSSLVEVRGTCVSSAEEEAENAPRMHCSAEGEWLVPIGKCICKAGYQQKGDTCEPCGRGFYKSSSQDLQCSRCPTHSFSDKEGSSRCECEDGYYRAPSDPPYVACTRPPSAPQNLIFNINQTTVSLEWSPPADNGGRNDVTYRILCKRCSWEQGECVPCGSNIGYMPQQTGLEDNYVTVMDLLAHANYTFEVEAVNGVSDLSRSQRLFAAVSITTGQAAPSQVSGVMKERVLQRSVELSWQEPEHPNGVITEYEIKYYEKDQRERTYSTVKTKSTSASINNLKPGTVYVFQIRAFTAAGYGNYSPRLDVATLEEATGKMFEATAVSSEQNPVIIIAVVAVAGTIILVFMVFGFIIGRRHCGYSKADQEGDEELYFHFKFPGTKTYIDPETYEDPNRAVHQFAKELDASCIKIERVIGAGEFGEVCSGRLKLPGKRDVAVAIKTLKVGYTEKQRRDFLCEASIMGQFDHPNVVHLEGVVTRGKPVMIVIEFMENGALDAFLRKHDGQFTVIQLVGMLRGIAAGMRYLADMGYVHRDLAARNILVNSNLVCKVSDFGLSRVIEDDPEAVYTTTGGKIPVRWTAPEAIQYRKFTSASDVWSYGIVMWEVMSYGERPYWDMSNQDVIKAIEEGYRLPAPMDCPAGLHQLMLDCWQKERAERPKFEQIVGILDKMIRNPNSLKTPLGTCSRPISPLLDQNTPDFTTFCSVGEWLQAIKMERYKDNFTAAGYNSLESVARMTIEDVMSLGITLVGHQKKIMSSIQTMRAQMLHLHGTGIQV
Chain of Serine/threonine-protein kinase STK11 (Homo sapiens) (Q15831 whole entry): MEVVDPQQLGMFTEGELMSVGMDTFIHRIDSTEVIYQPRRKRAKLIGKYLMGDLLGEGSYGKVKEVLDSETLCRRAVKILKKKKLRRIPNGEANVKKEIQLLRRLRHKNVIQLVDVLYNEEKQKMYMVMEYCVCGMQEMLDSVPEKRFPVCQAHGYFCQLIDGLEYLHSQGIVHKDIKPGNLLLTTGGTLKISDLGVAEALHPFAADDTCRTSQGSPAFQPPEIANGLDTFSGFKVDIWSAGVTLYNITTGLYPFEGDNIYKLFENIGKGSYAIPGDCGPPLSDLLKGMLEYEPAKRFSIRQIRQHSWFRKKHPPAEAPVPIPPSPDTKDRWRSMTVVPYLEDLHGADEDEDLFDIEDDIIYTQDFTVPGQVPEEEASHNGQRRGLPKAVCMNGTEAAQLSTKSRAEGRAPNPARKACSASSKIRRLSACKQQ
Chain of Cyclin-dependent kinase 5/CDK5 activator 1 (Homo sapiens) (Q00535 whole entry): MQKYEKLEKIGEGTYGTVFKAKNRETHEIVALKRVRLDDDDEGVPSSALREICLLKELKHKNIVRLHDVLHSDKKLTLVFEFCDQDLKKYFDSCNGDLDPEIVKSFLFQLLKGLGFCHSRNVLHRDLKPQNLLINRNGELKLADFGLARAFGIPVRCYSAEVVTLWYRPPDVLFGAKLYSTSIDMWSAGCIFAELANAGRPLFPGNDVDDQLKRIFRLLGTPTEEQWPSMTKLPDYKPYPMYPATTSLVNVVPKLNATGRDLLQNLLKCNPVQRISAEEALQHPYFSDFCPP
Chain of Cyclin-dependent kinase 5/CDK5 activator 1 (Homo sapiens) (Q15078 99-307 partner limits assumed): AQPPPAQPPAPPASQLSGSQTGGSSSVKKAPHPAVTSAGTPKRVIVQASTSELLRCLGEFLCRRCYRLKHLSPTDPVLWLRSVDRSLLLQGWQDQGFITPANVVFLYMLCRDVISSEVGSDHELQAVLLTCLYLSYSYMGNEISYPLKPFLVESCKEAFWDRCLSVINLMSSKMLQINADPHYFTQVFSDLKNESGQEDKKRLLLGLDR
Chain of Ribosomal protein S6 kinase alpha-3 (Homo sapiens) (P51812 whole entry): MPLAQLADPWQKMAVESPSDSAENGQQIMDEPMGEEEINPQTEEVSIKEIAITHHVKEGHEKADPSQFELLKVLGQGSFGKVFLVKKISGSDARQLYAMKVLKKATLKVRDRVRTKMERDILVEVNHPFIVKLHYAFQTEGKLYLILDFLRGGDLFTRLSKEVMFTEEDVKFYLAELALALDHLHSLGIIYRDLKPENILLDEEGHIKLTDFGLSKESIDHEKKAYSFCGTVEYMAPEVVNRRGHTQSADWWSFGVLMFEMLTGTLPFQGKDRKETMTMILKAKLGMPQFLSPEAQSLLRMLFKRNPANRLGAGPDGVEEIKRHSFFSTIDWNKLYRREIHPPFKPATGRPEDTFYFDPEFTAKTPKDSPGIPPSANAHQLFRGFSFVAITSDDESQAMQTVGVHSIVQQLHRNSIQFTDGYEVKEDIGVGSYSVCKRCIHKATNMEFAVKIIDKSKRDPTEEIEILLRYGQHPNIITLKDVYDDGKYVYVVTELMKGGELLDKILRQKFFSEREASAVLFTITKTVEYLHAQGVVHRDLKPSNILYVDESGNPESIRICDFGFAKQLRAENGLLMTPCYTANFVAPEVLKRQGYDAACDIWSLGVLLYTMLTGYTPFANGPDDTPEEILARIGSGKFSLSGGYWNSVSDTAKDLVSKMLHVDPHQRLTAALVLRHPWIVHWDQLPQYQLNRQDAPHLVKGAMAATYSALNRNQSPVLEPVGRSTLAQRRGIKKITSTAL
Chain of Bone morphogenetic protein receptor type-1B (Homo sapiens) (O00238 whole entry): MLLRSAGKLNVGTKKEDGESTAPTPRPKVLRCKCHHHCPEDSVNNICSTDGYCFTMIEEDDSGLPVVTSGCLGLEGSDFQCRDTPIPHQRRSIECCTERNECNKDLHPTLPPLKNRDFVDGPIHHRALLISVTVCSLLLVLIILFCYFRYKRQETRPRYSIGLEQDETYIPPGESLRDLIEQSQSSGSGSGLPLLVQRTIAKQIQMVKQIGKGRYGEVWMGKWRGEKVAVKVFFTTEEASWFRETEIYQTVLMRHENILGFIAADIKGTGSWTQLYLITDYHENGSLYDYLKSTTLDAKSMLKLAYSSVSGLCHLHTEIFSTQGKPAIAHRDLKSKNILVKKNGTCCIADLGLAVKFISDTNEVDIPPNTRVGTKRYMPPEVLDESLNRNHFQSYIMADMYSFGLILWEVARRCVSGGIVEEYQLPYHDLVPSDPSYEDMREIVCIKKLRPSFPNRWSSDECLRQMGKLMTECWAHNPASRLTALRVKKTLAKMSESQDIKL
Chain of Insulin receptor-related protein (Homo sapiens) (P14616 27-742 limits assumed): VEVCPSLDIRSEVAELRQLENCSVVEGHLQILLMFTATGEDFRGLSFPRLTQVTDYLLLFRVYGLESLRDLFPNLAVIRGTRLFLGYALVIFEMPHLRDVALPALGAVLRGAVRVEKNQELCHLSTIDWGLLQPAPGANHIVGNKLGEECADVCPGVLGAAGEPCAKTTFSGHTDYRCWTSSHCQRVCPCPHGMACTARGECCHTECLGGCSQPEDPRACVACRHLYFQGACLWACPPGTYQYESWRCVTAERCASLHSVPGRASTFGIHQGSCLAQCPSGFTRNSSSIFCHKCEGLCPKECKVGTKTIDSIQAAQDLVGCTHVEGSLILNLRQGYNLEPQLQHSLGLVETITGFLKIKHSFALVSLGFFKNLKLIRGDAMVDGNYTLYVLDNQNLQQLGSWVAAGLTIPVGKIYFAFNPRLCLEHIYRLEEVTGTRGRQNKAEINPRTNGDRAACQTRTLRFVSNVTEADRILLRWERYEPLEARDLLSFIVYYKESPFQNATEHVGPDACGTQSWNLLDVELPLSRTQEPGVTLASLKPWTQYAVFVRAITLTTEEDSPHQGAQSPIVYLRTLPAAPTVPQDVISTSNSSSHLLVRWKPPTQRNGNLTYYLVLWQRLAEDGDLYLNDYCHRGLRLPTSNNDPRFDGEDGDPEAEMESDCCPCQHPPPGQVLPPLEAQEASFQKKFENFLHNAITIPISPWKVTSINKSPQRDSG
Chain of Insulin receptor-related protein (Homo sapiens) (P14616 747-1297 limits assumed): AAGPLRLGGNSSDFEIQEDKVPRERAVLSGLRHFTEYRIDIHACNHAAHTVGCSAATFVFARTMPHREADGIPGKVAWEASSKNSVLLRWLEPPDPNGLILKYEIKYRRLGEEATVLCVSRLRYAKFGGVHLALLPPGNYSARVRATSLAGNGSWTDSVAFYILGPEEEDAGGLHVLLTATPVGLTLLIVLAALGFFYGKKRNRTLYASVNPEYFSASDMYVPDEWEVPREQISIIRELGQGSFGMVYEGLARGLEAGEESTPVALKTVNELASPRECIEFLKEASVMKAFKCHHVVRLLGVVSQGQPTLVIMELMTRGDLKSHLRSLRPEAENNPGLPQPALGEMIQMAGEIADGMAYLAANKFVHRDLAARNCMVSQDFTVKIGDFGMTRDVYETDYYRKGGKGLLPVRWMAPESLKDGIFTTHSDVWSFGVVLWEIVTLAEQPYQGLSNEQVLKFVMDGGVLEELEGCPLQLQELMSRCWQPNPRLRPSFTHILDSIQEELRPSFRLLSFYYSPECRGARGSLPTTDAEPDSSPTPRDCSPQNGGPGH
Chain of Casein kinase II subunit alpha (Homo sapiens) (P68400 whole entry, looked up, the tested form may be a part): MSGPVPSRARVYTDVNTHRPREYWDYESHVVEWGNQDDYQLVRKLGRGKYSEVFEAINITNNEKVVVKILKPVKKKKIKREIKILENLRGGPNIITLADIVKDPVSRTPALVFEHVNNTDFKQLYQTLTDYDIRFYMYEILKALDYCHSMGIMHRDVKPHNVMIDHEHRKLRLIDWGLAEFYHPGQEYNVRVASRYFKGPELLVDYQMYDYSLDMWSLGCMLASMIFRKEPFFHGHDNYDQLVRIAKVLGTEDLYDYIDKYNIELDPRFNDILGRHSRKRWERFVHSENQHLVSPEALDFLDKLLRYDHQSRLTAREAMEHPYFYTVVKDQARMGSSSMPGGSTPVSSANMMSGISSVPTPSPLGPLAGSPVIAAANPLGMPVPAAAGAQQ

Take `Cc1cc(C)c(CNc2nc(Cl)nc3c2ncn3C2CCCC2)c(=O)[nH]1`: the Activity in assay [1] was found to be 101%; in assay [2], 126%; in [3], 104%; in assay [4], 98.5%; in assay [5] it was 103%; in [6], 89.5%. The Activity was found to be 99.5% in assay [7]; 109% in assay [8]; 104% in [10]; 102% in [11]; 100% in assay [12]; 98.5% in [13]. Further, the Activity was 97% in [14]; 110% in [15]; 89% in assay [16]; 104% in assay [18]; 106% in assay [19]; 108% in assay [20]. Further, the Activity in [22] was 113%; in assay [23], “Dose-dependent effect”; in assay [24], 140%. Also, in [9], the IC50 amounted to 98 nM. Further, the viability at 0.1 µM in assay [17] turned out to be 66%. Further, the viability at 0.025 µM in assay [21] amounted to 61.8%.
